Reference: paper PMC9550195, “GSK3β-dependent lysosome biogenesis: An effective pathway to mitigate renal fibrosis with LM49” (Frontiers in Pharmacology, 2022)

Target: T1, GSK3β (Homo sapiens, UniProt P49841)
T1 construct: gene GSK3B
Assay: BLI with immobilised biotinylated recombinant GSK-3β; supported by mobility shift kinase assay (IC50 […]), Lineweaver-Burk, CETSA, DARTS
Type: binding

T1 sequence (P49841 whole entry): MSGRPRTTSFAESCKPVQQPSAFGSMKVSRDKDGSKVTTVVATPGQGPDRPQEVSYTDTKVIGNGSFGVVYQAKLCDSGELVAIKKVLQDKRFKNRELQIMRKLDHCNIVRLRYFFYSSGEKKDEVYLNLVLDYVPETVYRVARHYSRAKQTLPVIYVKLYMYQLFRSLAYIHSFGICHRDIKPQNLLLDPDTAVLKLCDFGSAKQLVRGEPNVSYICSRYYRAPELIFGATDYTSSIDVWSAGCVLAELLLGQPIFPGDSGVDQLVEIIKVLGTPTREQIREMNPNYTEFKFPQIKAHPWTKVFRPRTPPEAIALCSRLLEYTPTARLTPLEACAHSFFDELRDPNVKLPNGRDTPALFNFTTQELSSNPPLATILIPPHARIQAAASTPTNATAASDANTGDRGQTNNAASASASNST

Kd: 122 µM
SMILES: O=C(c1cc(Br)ccc1O)c1cc(O)c(O)cc1Br [LM49, 5,2′-dibromo-2,4′,5′-trihydroxydiphenylmethanone]
